# Reference: article PMC3768135 (Bioorganic & medicinal chemistry, 2013)
# Tests used:
# SaFtsZ = SaFtsZ (Staphylococcus aureus, UniProt P0A031); test: GTPase assay, malachite green phosphate detection; assay type: biochemical
# EcFtsZ = EcFtsZ (Escherichia coli, UniProt P0A9A6); test: GTPase assay, malachite green phosphate detection; assay type: biochemical
# BsFtsZ = molecular target: T1, BsFtsZ (Bacillus subtilis, UniProt P17865); test: fluorescence anisotropy titration with FtsZ; assay type: binding
# T1 sequence (P17865 1-382): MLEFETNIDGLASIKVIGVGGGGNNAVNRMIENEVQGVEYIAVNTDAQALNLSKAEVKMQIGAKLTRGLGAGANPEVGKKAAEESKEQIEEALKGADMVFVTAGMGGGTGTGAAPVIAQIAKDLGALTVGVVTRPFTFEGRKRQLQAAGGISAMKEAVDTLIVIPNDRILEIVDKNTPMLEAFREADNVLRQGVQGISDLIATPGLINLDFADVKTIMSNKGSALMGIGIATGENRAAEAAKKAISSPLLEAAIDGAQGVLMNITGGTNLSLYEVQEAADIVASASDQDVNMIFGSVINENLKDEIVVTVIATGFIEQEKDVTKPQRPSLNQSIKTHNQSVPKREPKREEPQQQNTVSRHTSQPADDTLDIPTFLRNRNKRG
# SaFtsZ, sequence (P0A031 whole entry): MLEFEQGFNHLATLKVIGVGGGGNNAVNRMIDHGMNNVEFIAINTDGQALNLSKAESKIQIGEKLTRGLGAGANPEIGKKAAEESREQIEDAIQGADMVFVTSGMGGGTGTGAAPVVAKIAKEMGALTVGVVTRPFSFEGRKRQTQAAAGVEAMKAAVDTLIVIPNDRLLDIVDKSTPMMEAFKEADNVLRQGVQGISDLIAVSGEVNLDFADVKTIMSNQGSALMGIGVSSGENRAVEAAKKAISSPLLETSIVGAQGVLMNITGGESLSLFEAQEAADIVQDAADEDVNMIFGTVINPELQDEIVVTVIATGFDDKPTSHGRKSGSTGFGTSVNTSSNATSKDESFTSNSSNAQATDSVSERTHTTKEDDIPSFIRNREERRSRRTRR
# EcFtsZ, sequence (P0A9A6 whole entry): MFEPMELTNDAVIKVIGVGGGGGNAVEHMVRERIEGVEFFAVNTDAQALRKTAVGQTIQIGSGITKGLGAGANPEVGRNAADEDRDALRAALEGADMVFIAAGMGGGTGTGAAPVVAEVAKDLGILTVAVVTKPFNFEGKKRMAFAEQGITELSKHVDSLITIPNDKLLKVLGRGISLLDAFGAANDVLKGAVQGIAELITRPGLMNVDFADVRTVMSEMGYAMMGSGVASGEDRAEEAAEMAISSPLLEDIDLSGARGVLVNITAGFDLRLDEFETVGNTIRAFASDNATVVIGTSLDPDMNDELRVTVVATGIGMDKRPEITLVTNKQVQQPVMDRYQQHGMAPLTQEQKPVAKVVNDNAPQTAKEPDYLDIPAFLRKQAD
Substance,IC50 (SaFtsZ) [µM],IC50 (EcFtsZ) [µM],Ka (BsFtsZ)
hemi-chrysophaentin [compound 2],38 ± 9,37 ± 7,–
mant-GTP,–,–,(9.9 ± 0.5) × 10^5 (Ka) M^−1
